Square brackets hold non-standard residues; d marks the D form. Ends that are not written are not given here. * marks the point of attachment. Myristoyl = CCCCCCCCCCCCCC(=O)*; Lauroyl = CCCCCCCCCCCC(=O)*; linker = not defined here; Aun = NCCCCCCCCCCC(=O)O
How the values were obtained:
[1] = Retention of binding to metal bead after incubation in 10% BSA with 10 mM guanidinium chloride (mimics human plasma); conditions: 18 hour incubation in 10% BSA + 10 mM guanidinium chloride, 37° C.; comparator SEQ ID NO:122
Excerpt: In this example, illustrated are unexpected beneficial properties of the composition of the invention, including but not limited to, one or more improved biophysical properties. Such one or more unexpected beneficial properties of a composition of the invention may comprise an increase in stability. An increase in stability may comprise any one or more of resistance to chemical denaturation, resistance to proteolytic degradation, improved retention to a substrate (e.g., resistance to being competed off a substrate to which it is bound, such as by proteins or other biomolecules found in body tissues). Thus, to ascertain a beneficial property of a composition of the invention, it is compared to the properties of a component of the composition-namely, a substrate-binding peptide by itself (e.g., without fatty acid covalently coupled thereto). An assay was developed that, from our direct comparisons (see, e.g., discussion of FIG. 2 below, and Example 7 herein), mimicked the effect of incubation of substrate-binding peptide with human plasma on stability of binding of a substrate-binding peptide to its substrate. The assay utilized incubations in the presence of 10% bovine serum album (BSA) with 10 mM guanidinium chloride. The high BSA concentration mimics the elevated albumin content of human plasma, and the guanidinium chloride is used to compete with any charged interactions involved in binding of the substrate-binding peptide to its substrate.
In this assay, two immunoassay plates were prepared for a “side-by-side” comparison of binding of a test sample (substrate-binding peptide or composition of the invention) to its substrate with or without the presence of 10% BSA with 10 mM guanidinium chloride. The wells of each 96-well polypropylene plate were incubated with 350 μl BSA 1% in PBS for 30 minutes at 20° C. with 500 rpm shaking. To each well was added one acetone-cleaned 3/32″ 316LVM stainless steel bead, followed by addition of dilutions in PBS of the test sample in a range of concentrations starting from 10 μM. Final volume in each well was 200 μl. The plates were incubated for 1 hour at 20° C. with 500 rpm shaking to allow for the binding to occur. The beads were washed 3 times with 250 μl PBS using a plate washer. […]
In the immunoassay for detecting binding without the presence of 10% BSA with 10 mM guanidinium chloride, added to each well was 200 μl of streptavidin AP (AP is alkaline phosphatase) at 1/200 in TBS+1% BSA. […] When color has developed, each well was read at OD405 nm in endpoint mode using a plate reader. […] When color has developed, the wells were read at OD405 nm in endpoint mode using a plate reader. […]

[2] = Critical micelle concentration (methyl orange assay); format: physicochemical; conditions: pH 7 PBS, methyl orange 0.04 mM, A484
Protocol: Formation of a composition of the invention, and evidence of macromolecular network formation, may be monitored or quantified by any means known in the art. In this example, macromolecular formation was detected using a standard assay for determining critical micelle concentration (“CMC”). In this assay, a solution containing the composition of the invention (in a range of concentrations in pH 7 phosphate buffered saline (“PBS”)) was mixed with a solution of methyl orange (0.04 mM in PBS), and the absorbance of the mixture was measured at 484 nm (A484). CMC is the concentration at which a sharp decrease in absorbance at A484 is observed, a change in the optical properties of methyl orange when trapped in a hydrophobic phase, such as caused by self-association as a macromolecular network (Table 7, “CMC”). Also included in this assay were an assay control peptide having an amino acid sequence of SEQ ID NO:122 (Table 7, “Control”), and compound 119 (a PEGylated peptide, the peptide having an amino acid sequence of SEQ ID NO:122, as described in more detail in Example 6 herein).

[3] = test system: Staphylococcus aureus strain MZ100; assay: Tibia pin assay: coated titanium pins with vancomycin, bacterial cfu count; format: cell-based; parameters: key: —: “−” means no cfus; “many” means too many cfus to count, as they converge into one spot; conditions: pin coated with test sample + vancomycin
Excerpt: In this assay, titanium pins were used as a model for tibia pins. Briefly, sterile pins were first coated with biofunctional composition (“SEQ ID NO:124-linker-SEQ ID NO:122”) comprising a substrate-binding peptide having binding specificity for vancomycin (“SEQ ID NO:124”) linked to a substrate-binding peptide having binding specificity for metal (“SEQ ID NO:122”), or a composition of the invention formed from compound comprising the biofunctional composition covalently coupled to fatty acid. The respective coatings also include vancomycin bound thereto. The coated pins were then placed in a silicone tube containing liquid bacterial growth medium and inoculated with bacteria. After incubation, the pins were removed, and then the liquid growth medium was serially diluted. The serial dilutions were inoculated onto bacterial culture plates, the plates were incubated, and counted on the plates were bacterial colonies.
In this assay, test samples (biofunctional composition (Table 6, “BC”) or compositions 133, 134, 135, 136 139) each were used to coat a pin by incubating the test sample (in a range of from about 0.8 mM to about 1 mM) with 2.5 μl of a 10 mM vancomycin solution and PBS to a final volume of 250 μl in a microtube (3 pins per tube) for 60 minutes at room temperature with occasional agitation. In a piece of silicone tubing (1.5 mm inner diameter, 50 mm long), added is tryptic soy broth+0.2% glucose, the coated pin, and 103 colony forming units (cfu) of Staphylococcus aureus strain MZ100 in either a 20 μl inoculum, 40 μl inoculum, or 60 μl inoculum. The tubing is clamped closed, and the tubing is incubated for 37° C. for 3 hours. After 3 hours, serial dilutions (1:10, 1:100, 1:1000) were made of the culture media from each tubing, and 10 μl of the undiluted culture medium and of each dilution were spotted onto the bacterial culture plate. The bacterial culture plate was incubated overnight at 37° C., and then the cfus were counted. The results, a composite of different assay runs, are shown in Table 6 (“−” means no cfus; “many” means too many cfus to count, as they converge into one spot; “NT” means not tested).

119: Fmoc-NH-(PEG)27-CO2H covalently coupled to a peptide having the amino acid sequence of SEQ ID NO:122 (PEGylated peptide) (SSHRTNHKKNNPKKKNKTRGSSGK; also: Fmoc-NH-(PEG)27-CO2H coupled, site not given here) [Compound 119, reference compound]
retention of binding of substrate-binding peptide component to its substrate, compared to substrate-binding peptide alone (FIG. 1) [1]: failed to promote retention of binding | CMC [2]: >>10 μM

120: amino acid sequence YWAWAYAW (SEQ ID NO:129) covalently coupled to a peptide having the amino acid sequence of SEQ ID NO:122 (YWAWAYAWSSHRTNHKKNNPKKKNKTRGSSGK) [Compound 120, reference compound]
retention of binding of substrate-binding peptide component to its substrate, compared to substrate-binding peptide alone (FIG. 1) [1]: failed to promote retention of binding

AUD-AUD-AUD-AUD-SEQ ID NO:122 ([Aun][Aun][Aun][Aun]SSHRTNHKKNNPKKKNKTRGSSGK) [Compound 122]
retention of binding of substrate-binding peptide component to its substrate, compared to substrate-binding peptide alone (FIG. 1) [1]: significantly improved retention of binding

AUD-AUD-K-AUD-AUD-AUD-AUD-SEQ ID NO:122 ([Aun][Aun]K[Aun][Aun][Aun][Aun]SSHRTNHKKNNPKKKNKTRGSSGK) [Compound 123]
retention of binding of substrate-binding peptide component to its substrate, compared to substrate-binding peptide alone (FIG. 1) [1]: significantly improved retention of binding | CMC [2]: 0.04 µM

Ac-Y-AUD-AUD-AUD-AUD-AUD-AUD-SEQ ID NO:122 (Ac-Y[Aun][Aun][Aun][Aun][Aun][Aun]SSHRTNHKKNNPKKKNKTRGSSGK) [Compound 132]
CMC [2]: 0.123 µM

LAU-SEQ ID NO:122 (Lauroyl-SSHRTNHKKNNPKKKNKTRGSSGK) [Compound 126]
CMC [2]: 0.37 µM

MYR-SEQ ID NO:122 (Myristoyl-SSHRTNHKKNNPKKKNKTRGSSGK) [Compound 125]
CMC [2]: 0.123 µM

MYR-linker-SEQ ID NO:122 ({Myristoyl-linker}-SSHRTNHKKNNPKKKNKTRGSSGK; reading uncertain) [Compound 127]
CMC [2]: 0.123 µM

PALM-PALM-PALM-linker-SEQ ID NO:122 (SSHRTNHKKNNPKKKNKTRGSSGK; also: three palmitoyl groups and linker, attachment not placed) [Compound 129]
CMC [2]: 0.123 µM

SSHRTNHKKNNPKKKNKTRGSSGK [Compound 130, AUD-AUD-AUD-AUD-AUD-AUD-SEQ ID NO:122]
CMC [2]: 0.041 µM

SSHRTNHKKNNPKKKNKTRGSSGK [Compound 131, AUD-AUD-AUD-AUD-AUD-AUD-AUD-AUD-SEQ ID NO:122]
CMC [2]: 0.37 µM

SSHRTNHKKNNPKKKNKTRGSSGK [SEQ ID NO:122]
CMC ([2]; listed as Control): >>10 μM

SSSCLIDMYGVCHNFDGAYDSSRG [Compound 134, AUD-AUD-AUD-AUD-SEQ ID NO:124-linker-SEQ ID NO:122]
cfu 1:10 ([3]; 20 μl inoculum): — | cfu 1:100 ([3]; 20 μl inoculum): — | cfu 1:1000 ([3]; 20 μl inoculum): — | cfu undiluted ([3]; 20 μl inoculum, 103 colony forming units, 3 hours 37° C.): — | cfu 1:10 ([3]; 40 μl inoculum): 6 cfu | cfu 1:100 ([3]; 40 μl inoculum): 1 cfu | cfu 1:1000 ([3]; 40 μl inoculum): — | cfu undiluted ([3]; 40 μl inoculum): many | cfu 1:10 ([3]; 60 μl inoculum): 17 cfu | cfu 1:100 ([3]; 60 μl inoculum): 5 cfu | cfu 1:1000 ([3]; 60 μl inoculum): — | cfu undiluted ([3]; 60 μl inoculum): many

[MYR]2-K-linker-SEQ ID NO:122 (SSHRTNHKKNNPKKKNKTRGSSGK; also: lysine bearing two myristoyl groups plus linker, attachment not placed) [Compound 128]
CMC [2]: 0.123 µM

Reference: US20090246249A1, “COATING COMPOSITIONS HAVING IMPROVED PERFORMANCE” (priority 2008, published 2009)
